The text below walks through data of patent US20260137819A1 (Radionetics Oncology, Inc., priority 2022, published 2026).

As a reminder, the EC50 is the concentration giving half of the maximal effect.

The experiment concerns the target T1, human follicle-stimulating hormone receptor (FSHR) (Homo sapiens, UniProt P23945).
T1 construct: host or cells: CHO-K1
T1 sequence (P23945 18-695): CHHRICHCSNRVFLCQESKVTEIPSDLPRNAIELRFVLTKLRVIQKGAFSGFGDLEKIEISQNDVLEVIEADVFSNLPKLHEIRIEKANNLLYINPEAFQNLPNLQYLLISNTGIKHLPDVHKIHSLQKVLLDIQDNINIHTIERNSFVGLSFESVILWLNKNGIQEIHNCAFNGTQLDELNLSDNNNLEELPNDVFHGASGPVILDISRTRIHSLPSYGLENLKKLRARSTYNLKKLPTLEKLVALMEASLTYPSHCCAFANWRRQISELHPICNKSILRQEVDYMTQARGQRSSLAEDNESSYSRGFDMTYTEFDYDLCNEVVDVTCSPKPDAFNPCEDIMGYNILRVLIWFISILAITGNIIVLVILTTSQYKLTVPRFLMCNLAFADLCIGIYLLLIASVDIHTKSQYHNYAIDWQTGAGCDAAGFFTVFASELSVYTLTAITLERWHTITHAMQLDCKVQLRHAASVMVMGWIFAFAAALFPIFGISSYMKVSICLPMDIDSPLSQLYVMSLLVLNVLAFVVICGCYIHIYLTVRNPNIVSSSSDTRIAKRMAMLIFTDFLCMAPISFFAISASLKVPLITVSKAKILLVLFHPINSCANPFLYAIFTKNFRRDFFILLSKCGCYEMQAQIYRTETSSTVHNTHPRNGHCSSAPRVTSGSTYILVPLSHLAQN
Put plainly: Measurement of agonist cAMP production by activation of human FSHR. It is filed as cell-based. Conditions: CHO-K1 human FSHR cells, 30 minutes at 37° C., HTRF cAMP kit; read-out: hFSHR Agonist cAMP EC50. A digest of the protocol:
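cAMP output was measured by HTRF after 30 min at 37 °C agonist exposure (0–10,000 nM final) in stably FSHR-transfected CHO-K1 cells. Lysate cAMP was read off a standard curve and fitted to obtain half-maximal EC50.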
(In general: Cyclic AMP is a second messenger, typically raised through Gs and lowered through Gi signalling.)
With `COc1cc2c(cc1-c1cccc(NC(=O)CN3CCN(CC(=O)O)CCN(CC(=O)O)CCN(CC(=O)O)CC3)c1)-c1c(c(C(=O)N3CCOCC3(C)C)nn1-c1cc(Cl)cc(Cl)c1)CO2` [Compound 29, 2,2′,2″-(10-(2-((3-(1-(3,5-dichlorophenyl)-3-(3,3-dimethylmorpholine-4-carbonyl)-7-methoxy-1,4-dihydrochromeno|4,3-c|pyrazol-8-yl)phenyl)amino)-2-oxoethyl)-1,4,7,10-tetraazacyclododecane-1,4,7-triyl)triacetic acid], the EC50 is greater than 100 nM.

Take `COc1cc2c(cc1-c1cccc(NC(=O)C[C@@H](NC(=O)CN3CCN(CC(=O)O)CCN(CC(=O)O)CCN(CC(=O)O)CC3)C(=O)O)c1)-c1c(c(C(=O)N3CCOCC3(C)C)nn1-c1cc(Cl)cc(Cl)c1)CO2` [Compound 30]: the EC50 fell in the range of 10 to 100 nM.

`COc1cc2c(cc1-c1cccc(NC(=O)CC[C@@H](NC(=O)CN3CCN(CC(=O)O)CCN(CC(=O)O)CCN(CC(=O)O)CC3)C(=O)O)c1)-c1c(c(C(=O)N3CCOCC3(C)C)nn1-c1cc(Cl)cc(Cl)c1)CO2` [Compound 31]: the EC50 is 10 to 100 nM.

As to `COc1cc2c(cc1-c1cccc(NC(=O)CNC(=O)C[C@@H](NC(=O)CN3CCN(CC(=O)O)CCN(CC(=O)O)CCN(CC(=O)O)CC3)C(=O)O)c1)-c1c(c(C(=O)N3CCOCC3(C)C)nn1-c1cc(Cl)cc(Cl)c1)CO2` [Compound 32, (R)-2,2′,2″-(10-(2-((1-carboxy-3-((2-((3-(1-(3,5-dichlorophenyl)-3-(3,3-dimethylmorpholine-4-carbonyl)-7-methoxy-1,4-dihydrochromeno|4,3-clpyrazol-8-yl)phenyl)amino)-2-oxoethyl)amino)-3-oxopropyl)amino)-2-oxoethyl)-1,4,7,10-tetraazacyclododecane-1,4,7-triyl)triacetic acid], the EC50 lay in the range of 10 to 100 nM.

Regarding `COc1cc2c(cc1-c1cccc(NC(=O)[C@H](CS(=O)(=O)O)NC(=O)CN3CCN(CC(=O)O)CCN(CC(=O)O)CCN(CC(=O)O)CC3)c1)-c1c(c(C(=O)N3CCOCC3(C)C)nn1-c1cc(Cl)cc(Cl)c1)CO2` [Compound 33, (R)-2,2′,2″-(10-(2-((1-((3-(1-(3,5-dichlorophenyl)-3-(3,3-dimethylmorpholine-4-carbonyl)-7-methoxy-1,4-dihydrochromeno|4,3-c|pyrazol-8-yl)phenyl)amino)-1-oxo-3-sulfopropan-2-yl)amino)-2-oxoethyl)-1,4,7,10-tetraazacyclododecane-1,4,7-triyl)triacetic acid], the EC50 was greater than 100 nM.

As to `COc1cc2c(cc1-c1cccc(NC(=O)C3OC(CNC(=O)CN4CCN(CC(=O)O)CCN(CC(=O)O)CCN(CC(=O)O)CC4)C(O)C(O)C3O)c1)-c1c(c(C(=O)N3CCOCC3(C)C)nn1-c1cc(Cl)cc(Cl)c1)CO2` [Compound 34, 2,2′,2″-(10-(2-((((2S,3R,4R,5R,6S)-6-((3-(1-(3,5-dichlorophenyl)-3-(3,3dimethylmorpholine-4-carbonyl)-7-methoxy-1,4-dihydrochromeno|4,3-c]pyrazol-8-yl)phenyl)carbamoyl)-3,4,5-trihydroxytetrahydro-2H-pyran-2-yl)methyl)amino)-2-oxoethyl)-1,4,7,10-tetraazacyclododecane-1,4,7-triyl)triacetic acid], the EC50 lay within 10 to 100 nM.

As for `COc1cc2c(cc1-c1cccc(NC(=O)C(CNC(=O)CCNC(=O)CN3CCN(CC(=O)O)CCN(CC(=O)O)CCN(CC(=O)O)CC3)CNC(=O)CCNC(=O)CN3CCN(CC(=O)O)CCN(CC(=O)O)CCN(CC(=O)O)CC3)c1)-c1c(c(C(=O)N3CCOCC3(C)C)nn1-c1cc(Cl)cc(Cl)c1)CO2` [Compound 35], the EC50 was greater than 100 nM.

Regarding `COc1cc2c(cc1-c1cccc(NC(=O)CCNC(=O)CN3CCC(NC(=O)CN4CCN(CC(=O)O)CCN(CC(=O)O)CCN(CC(=O)O)CC4)CC3)c1)-c1c(c(C(=O)N3CCOCC3(C)C)nn1-c1cc(Cl)cc(Cl)c1)CO2` [Compound 36, 2,2′,2″-(10-(2-((1-(2-((3-((3-(1-(3,5-dichlorophenyl)-3-(3,3dimethylmorpholine-4-carbonyl)-7-methoxy-1,4-dihydrochromeno|4,3-clpyrazol-8-yl)phenyl)amino)-3-oxopropyl)amino)-2-oxoethyl)piperidin-4-yl)amino)-2-oxoethyl)-1,4,7,10-tetraazacyclododecane-1,4,7-triyl)triacetic acid], the EC50 is less than 10 nM.

Regarding `COc1cc2c(cc1-c1cccc(NC(=O)CCNC(=O)[C@H](CS(=O)(=O)O)NC(=O)CN3CCN(CC(=O)O)CCN(CC(=O)O)CCN(CC(=O)O)CC3)c1)-c1c(c(C(=O)N3CCOCC3(C)C)nn1-c1cc(Cl)cc(Cl)c1)CO2` [Compound 37, (R)-2,2′,2″-(10-(2-((1-((3-((3-(1-(3,5-dichlorophenyl)-3-(3,3dimethylmorpholine-4-carbonyl)-7-methoxy-1,4-dihydrochromeno|4,3-clpyrazol-8-yl)phenyl)amino)-3-oxopropyl)amino)-1-oxo-3-sulfopropan-2-yl)amino)-2-oxoethyl)-1,4,7,10-tetraazacyclododecane-1,4,7-triyl)triacetic acid], the EC50 lay within 10 to 100 nM.

For the compound `COc1cc2c(cc1-c1cccc(NC(=O)C[C@H](O)C[C@H](O)CCNC(=O)CN3CCN(CC(=O)O)CCN(CC(=O)O)CCN(CC(=O)O)CC3)c1)-c1c(c(C(=O)N3CCOCC3(C)C)nn1-c1cc(Cl)cc(Cl)c1)CO2` [Compound 38], the EC50 was 10 to 100 nM.

Take `COc1cc2c(cc1-c1cccc(/C(C)=N/OCCNC(=O)CN3CCN(CC(=O)O)CCN(CC(=O)O)CCN(CC(=O)O)CC3)c1)-c1c(c(C(=O)N3CCOCC3(C)C)nn1-c1cc(Cl)cc(Cl)c1)CO2` [Compound 39]: the EC50 was in the range of 10 to 100 nM.

With `COc1cc2c(cc1-c1cccc(/C(C)=N/OCCNC(=O)CN3CCN(C(=O)CN4CCN(CC(=O)O)CCN(CC(=O)O)CCN(CC(=O)O)CC4)CC3)c1)-c1c(c(C(=O)N3CCOCC3(C)C)nn1-c1cc(Cl)cc(Cl)c1)CO2` [Compound 40], the EC50 was 10 to 100 nM.

In the case of `COc1cc2c(cc1-c1cccc(/C(C)=N/OCCNC(=O)COCCOCCNC(=O)CN3CCN(CC(=O)O)CCN(CC(=O)O)CCN(CC(=O)O)CC3)c1)-c1c(c(C(=O)N3CCOCC3(C)C)nn1-c1cc(Cl)cc(Cl)c1)CO2` [Compound 41, (E)-2,2′,2″-(10-(1-(3-(1-(3,5-dichlorophenyl)-3-(3,3-dimethylmorpholine-4carbonyl)-7-methoxy-1,4-dihydrochromeno|4,3-c|pyrazol-8-yl)phenyl)-7,16-dioxo-3,9,12-trioxa-2,6,15-triazaheptadec-1-en-17-yl)-1,4,7,10-tetraazacyclododecane-1,4,7-triyl)triacetic acid], the EC50 is 10 to 100 nM.

On to `COc1cc2c(cc1-c1cccc(/C(C)=N/OCCNC(=O)CN(C)C(=O)CN(C)C(=O)CN3CCN(CC(=O)O)CCN(CC(=O)O)CCN(CC(=O)O)CC3)c1)-c1c(c(C(=O)N3CCOCC3(C)C)nn1-c1cc(Cl)cc(Cl)c1)CO2` [Compound 42, (E)-2,2′,2″-(10-(1-(3-(1-(3,5-dichlorophenyl)-3-(3,3-dimethylmorpholine-4carbonyl)-7-methoxy-1,4-dihydrochromeno|4,3-c|pyrazol-8-yl)phenyl)-9,12-dimethyl-7,10,13-trioxo-3-oxa-2,6,9,12-tetraazatetradec-1-en-14-yl)-1,4,7,10-tetraazacyclododecane-1,4,7-triyl)triacetic acid], for which the EC50 fell in the range of 10 to 100 nM.

As for `COc1cc2c(cc1-c1cccc(NC(=O)CONC(=O)CN3CCN(CC(=O)O)CCN(CC(=O)O)CCN(CC(=O)O)CC3)c1)-c1c(c(C(=O)N3CCOCC3(C)C)nn1-c1cc(Cl)cc(Cl)c1)CO2` [Compound 43], the EC50 was 10 to 100 nM.

As to `COc1cc2c(cc1-c1cccc(NC(=O)CON=C3CN(C(=O)CN4CCN(CC(=O)O)CCN(CC(=O)O)CCN(CC(=O)O)CC4)C3)c1)-c1c(c(C(=O)N3CCOCC3(C)C)nn1-c1cc(Cl)cc(Cl)c1)CO2` [Compound 44, 2,2′,2″-(10-(2-(3-((2-((3-(1-(3,5-dichlorophenyl)-3-(3,3-dimethylmorpholine-4carbonyl)-7-methoxy-1,4-dihydrochromeno|4,3-c|pyrazol-8-yl)phenyl)amino)-2-oxoethoxy)imino)azetidin-1-yl)-2-oxoethyl)-1,4,7,10-tetraazacyclododecane-1,4,7-triyl)triacetic acid], the EC50 is less than 10 nM.

As for `COc1cc2c(cc1-c1cccc(NC(=O)CCC(=O)N(CCOCCOCCOCCOCCOCCC(=O)O)C3CCN(C(=O)CN4CCN(CC(=O)O)CCN(CC(=O)O)CCN(CC(=O)O)CC4)CC3)c1)-c1c(c(C(=O)N3CCOCC3(C)C)nn1-c1cc(Cl)cc(Cl)c1)CO2` [Compound 45, 2,2′,2″-(10-(2-(4-(N-(17-carboxy-3,6,9,12,15-pentaoxaheptadecyl)-4-((3-(1-(3,5dichlorophenyl)-3-(3,3-dimethylmorpholine-4-carbonyl)-7-methoxy-1,4-dihydrochromeno|4,3-clpyrazol-8-yl)phenyl)amino)-4-oxobutanamido)piperidin-1-yl)-2-oxoethyl)-1,4,7,10-tetraazacyclododecane-1,4,7-triyl)triacetic acid], the EC50 was less than 10 nM.
